Test results from PMC8036666, “Biological and Physico-Chemical Characteristics of Arginine-Rich Peptide Gemini Surfactants with Lysine and Cystine Spacers” (International Journal of Molecular Sciences, 2021).
In brackets after ≈: the same amount, converted by molar mass. Read-outs that look alike come from different tables or passages of the source. Where a SMILES comes first, the peptide text is derived from it. Bridges are numbered along the chain shown (N, C = ends). Roman numbers before positions name the chains, in order. [ ]: non-standard residue; d: D form. The star is where a group is joined. Myristoyl = CCCCCCCCCCCCCC(=O)*; Lauroyl = CCCCCCCCCCCC(=O)*; Nle = CCCC[C@H](N)C(=O)O; Octanoyl = CCCCCCCC(=O)*

Tests used:
[1] = Lipopeptide hydrophobicity by RP-HPLC (adjusted retention time); assay type: physicochemical; settings: for Adjusted Retention Time: RP-HPLC, 20–65% acetonitrile over 30 min, indicator of hydrophobicity; for Difference in retention time calculated as tR’C—tR’B: between corresponding surfactants of series C and B
Method: The identity of the purified peptides was confirmed with electrospray ionization mass spectrometry (ESI-MS) in positive ion mode. Results of MS analyses and net charge are attached in Supplementary Materials (Table S1). Peptides’ hydrophobicity was evaluated by analytical reversed-phase high-performance liquid chromatography (RP-HPLC). The critical aggregation concentrations (CACs) of the lipopeptides were determined in unbuffered aqueous solution at 298 K by measuring the surface tension as a function of lipopeptide concentration. The measurements were carried out by the Du Noüy ring method on a K100 tensiometer. The surface tension data were plotted against the logarithm of lipopeptide concentration. CAC was found as the intersection of two lines being linear regression of data below and above CAC.
Lipopeptide hydrophobicity was determined as described previously. To do this, a Waters Alliance e2695 system with a Waters 2998 PDA Detector (software-Empower 3, Waters, Milford, MA, USA) was used. All analyses were carried out on a Waters X-Bridge Shield RP-18 column (3.0 × 100 mm, 3.5 μm particle size, 130 Å pore size). The Shield Technology column with embedded polar groups was used to minimize interactions of unreacted silanol groups with basic lipopeptides. The peptides were dissolved in water (0.1% TFA, v/v) up to a concentration of 1 mg/mL. UV detection at 214 nm was used, and samples (10 μL) were eluted with a linear 20–65% acetonitrile gradient in deionized water over 30 min at 25.0 ± 0.1 °C. The mobile phase flow rate was 0.5 mL/min. Both eluents contained 0.1% (v/v) of TFA. Each peptide sample was analyzed in triplicate. The maximum standard deviation and coefficient of variation were 0.044 and 0.85%, respectively.

[2] = system: Staphylococcus aureus ATCC 33591
Method: The Acinetobacter baumannii ATCC BAA-1605, Enterococcus faecium ATCC 700221, Escherichia coli ML-35 ATCC 43827, Klebsiella aerogenes ATCC 13048, Klebsiella pneumoniae ATCC 700603, Pseudomonas aeruginosa ATCC 9027, Staphylococcus aureus ATCC 25923, Staphylococcus aureus ATCC 33591, Candida albicans ATCC 10231, Candida glabrata ATCC 15126, strains were acquired from the American Type Culture Collection (ATCC). All the strains were stored at −80 °C in Roti-Store cryo vials and before the tests were transferred into fresh Mueller–Hinton broth (MHB, Biocorp, Warsaw, […], Steinheim, Germany) for fungi and incubated for 24 h at 37 °C. Then, the cultures were seeded on the Mueller–Hinton agar (BioMaxima, Lublin, Poland) or Sabouraud dextrose agar (SDA, BioMaxima, Lublin, Poland) plates, respectively, and incubated as just mentioned. These agar cultures were used for further microbiological assays. […]
The MICs were determined by the broth microdilution method according to the Clinical and Laboratory Standard Institute guidelines. […] The experiments were conducted on 96-well microtiter polystyrene plates (Kartell, Noviglio, Italy). The growth was assessed visually after incubation, and the MIC was assumed as the lowest peptide concentration at which a noticeable growth of microorganisms was inhibited. All experiments were conducted in triplicate.

[3] = system: Staphylococcus aureus ATCC 25923; assay type: cell-based; settings: ATCC 25923, 24 h
Method: (§1) Biofilm is associated with life-threating infections due to its outstanding resistance to antibiotics. In this study, the antibiofilm characteristics of USCLs and gemini surfactants were evaluated.
(§2) The MBECs were determined as described previously using 96-well polystyrene flat-bottom plates. For this purpose, 24 h cultures of microorganisms were diluted to obtain a final density of 5.0 × 10^5 CFU/mL and 2.0 × 10^5 CFU/mL of bacteria and fungi, respectively. Microorganisms were diluted in MHB or RPMI-1640 with 2% D-glucose (bacteria and fungi, respectively). Briefly, 100 µL of cell suspension was added into the test plates. After 24 h of incubation at 37 °C, the wells were rinsed three times with a PBS (pH 7.4) to remove non-adherent cells. Subsequently, 100 μL of the test compounds in a concentration range (1–512 μg/mL) were added to each well. After 24 h of incubation at 37 °C, 20 μL of a cell viability reagent was added (resazurin, 4 g/L; Sigma Aldrich, St. Louis, MO, USA). The MBEC was read after 1 h. The determined values were recorded as the lowest concentration at which the reduction of resazurin (from blue to pink) was lower or equal to 10 ± 0.5% as compared to the positive (100%) and negative (0%) controls. The reduction was monitored by measuring absorbance at 570 nm (reduced) and 600 nm (oxidized) using a microplate spectrophotometer (Multiskan GO Microplate Spectrophotometer, Thermo Fisher Scientific, Vantaa, Finland). All experiments were conducted in triplicate.

[4] = system: Staphylococcus aureus ATCC 33591; assay type: cell-based; settings: ATCC 33591, 24 h
Method: as §1, §2

[5] = system: Acinetobacter baumannii ATCC BAA 1605; assay type: cell-based; settings: ATCC BAA 1605, 24 h
Method: as §1, §2

[6] = system: Klebsiella aerogenes ATCC 13048; assay type: cell-based; settings: ATCC 13048, 24 h
Method: as §1, §2

[7] = system: Candida glabrata ATCC 15126; assay type: cell-based; settings: ATCC 15126, 24 h
Method: as §1, §2

[8] = system: Klebsiella pneumoniae ATCC 700603; assay type: cell-based; settings: ATCC 700603, 24 h
Method: as §1, §2

[9] = system: Candida albicans ATCC 10231; assay type: cell-based; settings: ATCC 10231, 24 h
Method: as §1, §2

[10] = system: Pseudomonas aeruginosa ATCC 9027; assay type: cell-based; settings: ATCC 9027, 24 h
Method: as §1, §2

[11] = system: Enterococcus faecium ATCC 700221; assay type: cell-based; settings: ATCC 700221, 24 h
Method: as §1, §2

Compound | Adjusted Retention Time [1] | MIC Staphylococcus aureus ATCC 33591 ([2]; ATCC 33591, 24 h) | MBEC Staphylococcus aureus ATCC 25923 [3] | MBEC Staphylococcus aureus ATCC 33591 [4] | MBEC Acinetobacter baumannii ATCC BAA 1605 [5] | MBEC Klebsiella aerogenes ATCC 13048 [6] | MBEC Candida glabrata ATCC 15126 [7] | MBEC Klebsiella pneumoniae ATCC 700603 [8] | MBEC Candida albicans ATCC 10231 [9] | MBEC Pseudomonas aeruginosa ATCC 9027 [10] | MBEC Enterococcus faecium ATCC 700221 [11] | Difference in retention time calculated as tR’C—tR’B [1] | MIC Staphylococcus aureus ATCC 33591 ([2]; planktonic culture)
CCCCCCC(CCCC)C(=O)N[C@@H](CCCNC(=N)N)C(=O)N[C@@H](CCCNC(=N)N)C(=O)NCCCC[C@H](NC(=O)[C@H](CCCNC(=N)N)NC(=O)[C@H](CCCNC(=N)N)NC(=O)C(CCCC)CCCCCC)C(N)=O (stereo partly drawn) [Compound B7] | 14.68 min | 0.5 µg/mL (≈ 0.441 µM) | 8 µg/mL | 4 µg/mL | 64 µg/mL | 64 µg/mL | 256 µg/mL | 128 µg/mL | 64 µg/mL | 256 µg/mL | 8 µg/mL | – | –
CCCCCCCCCCCC(=O)N[C@@H](CCCNC(=N)N)C(=O)N[C@@H](CCCNC(=N)N)C(=O)N[C@@H](CSSC[C@H](NC(=O)[C@H](CCCNC(=N)N)NC(=O)[C@H](CCCNC(=N)N)NC(=O)CCCCCCCCCCC)C(N)=O)C(N)=O [Compound C3] (I: Lauroyl-Arg-Arg-Cys-NH2 / II: Lauroyl-Arg-Arg-Cys-NH2; disulfide I:3-II:3) | 19.24 min | 4 µg/mL (≈ 3.26 µM) | 128 µg/mL | 32 µg/mL | 512 µg/mL | 256 µg/mL | 128 µg/mL | 256 µg/mL | 16 µg/mL | 512 µg/mL | 16 µg/mL | 0.15 min | –
CCCCCCCC(=O)N[C@@H](CCCC)C(=O)N[C@@H](CCCNC(=N)N)C(=O)N[C@@H](CCCNC(=N)N)C(=O)N[C@@H](CSSC[C@H](NC(=O)[C@H](CCCNC(=N)N)NC(=O)[C@H](CCCNC(=N)N)NC(=O)[C@H](CCCC)NC(=O)CCCCCCC)C(N)=O)C(N)=O [Compound C6] (I: Octanoyl-[Nle]RRC-NH2 / II: Octanoyl-[Nle]RRC-NH2; disulfide I:4-II:4) | 14.29 min | 2 µg/mL (≈ 1.49 µM) | 32 µg/mL | 8 µg/mL | 512 µg/mL | 256 µg/mL | 512 µg/mL | 256 µg/mL | 256 µg/mL | 512 µg/mL | 8 µg/mL | 0.33 min | –
CCCCCCCC(=O)N[C@@H](CCCNC(=N)N)C(=O)N[C@@H](CCCNC(=N)N)C(N)=O [Compound A1, C8-RR-NH2] (Octanoyl-Arg-Arg-NH2) | 2.93 min | – | >512 µg/mL | >512 µg/mL | >512 µg/mL | >512 µg/mL | >512 µg/mL | >512 µg/mL | >512 µg/mL | >512 µg/mL | >512 µg/mL | – | >256 (−/−) µg/mL
CCCCCCCCCCCCCC(=O)N[C@@H](CCCNC(=N)N)C(=O)N[C@@H](CCCNC(=N)N)C(N)=O [Compound A4, C14-RR-NH2] (Myristoyl-Arg-Arg-NH2) | 16.31 min | 8 µg/mL (≈ 14.8 µM) | 16 µg/mL | 8 µg/mL | 256 µg/mL | 256 µg/mL | 256 µg/mL | 256 µg/mL | 64 µg/mL | 512 µg/mL | 8 µg/mL | – | –
CCCCCCCCCCCCCC(=O)N[C@@H](CCCNC(=N)N)C(=O)N[C@@H](CCCNC(=N)N)C(=O)N[C@@H](CSSC[C@H](NC(=O)[C@H](CCCNC(=N)N)NC(=O)[C@H](CCCNC(=N)N)NC(=O)CCCCCCCCCCCCC)C(N)=O)C(N)=O [Compound C4] (I: Myristoyl-Arg-Arg-Cys-NH2 / II: Myristoyl-Arg-Arg-Cys-NH2; disulfide I:3-II:3) | 25.30 min | 32 µg/mL (≈ 24.9 µM) | 512 µg/mL | 128 µg/mL | 512 µg/mL | 512 µg/mL | 64 µg/mL | 512 µg/mL | 16 µg/mL | >512 µg/mL | 64 µg/mL | -0.03 min | –
